Assay results from patent US10125097B2, “1- [1-(benzoyl)-pyrrolidine-2-carbonyl]-pyrrolidine-2-carbonitrile derivatives” (UNIVERSITAT DE BARCELONA, priority 2012, dated 2018).
Where two headings read alike, the source gives them in different places.

Key:
[1] = target: human prolyl oligopeptidase (Homo sapiens (Human), UniProt P48147); assay: POP inhibition assay (Z-G-P-AMC substrate, fluorimetric); format: biochemical
Experimental: Expression and Purification of Prolyl Oligopeptidase (POP)
POP was obtained by expression in E. coli and affinity purification using a His tail fusion according to a literature procedure (Tarragó T et al., ChemBioChem 2006; 7:827-33) summarized below:
hPOP expression: E. coli BL21 competent cells were transformed with pETM10 hPOP. To induce expression, a pre-culture of LB medium (50 mL) containing kanamycin (50 μg/mL) was inoculated with one colony and was grown overnight at 37° C. Next day, two cultures of LB medium (500 mL) were inoculated with the overnight culture (10 mL). The inoculated cultures were grown at 37° C. and 220 rpm until the OD595 was 1.2 (2.5-3 hours). IPTG was then added (final concentration of 1 mM) and induction was performed overnight at 25° C. Cells were harvested (3500 g, 15 min, 4° C.) and the pellet was suspended in suspension buffer (50 mL) [Tris-HCl pH 8 (50 mM), NaCl (300 mM), imidazole (1 mM)] and sonicated with use of four cycles (each consisting of 15 sec of sonication and 15 sec of rest) at an intensity of 50% and 0.5 pulses, the sample being kept on ice. After sonication, the sample was centrifuged (40 000 g, 30 min, 4° C.) and the supernatant was used immediately for POP purification. An ÁKTA explorer FPLC system was used for purification. The supernatant was applied at a flow of 1 mL/min to a HiTrapQuelating column (5 mL) previously equilibrated with 5 column volumes of suspension buffer. The column was washed with suspension buffer until the absorbance at 280 nm returned to basal level. The column was then rinsed with 5 volumes of washing buffer (50 mM Tris-HCl, pH 8, 300 mM NaCl, 30 mM imidazole). The elution was performed with 4 volumes of elution buffer (50 mM Tris-HCl, pH 8, 300 mM NaCl, 500 mM imidazole). Fractions (4 mL) were collected during the entire elution. POP activity was checked in all fractions and positive ones were analyzed by SDS-PAGE and stained with Biosafe Comassie Stain G-250. Positive fractions were collected and desalted by use of a HiPrep 26/10 Desalting column with Tris-HCl (50 mM, pH 8) as buffer. Recombinant hPOP was quantified with the Bio-Rad Protein Assay with BSA as standard. Aliquots of the recombinant enzyme were prepared and immediately frozen with liquid nitrogen and stored at −80° C.
POP activity was determined following the method described by Toide et al (Toide K et al., J. Pharmacol. Exp. Ther. 1995; 274:1370-8), using Z-G-P-AMC (N-benzyloxycarbonyl-Gly-Pro-methylcoumarinyl-7-amide) as POP substrate. The reactions were performed in 96-well microtiter plates, which allowed simultaneous monitoring of multiple reactions. For each reaction, activity buffer (134 μl, 100 mM Na/K phosphate buffer, pH 8.0) was pre-incubated for 15 min at 37° C. with hPOP (ranging from 20 to 60 nM, depending on the activity of the hPOP batch) and the corresponding new compound solution (3 μl). A stock solution of new compound was prepared in DMSO (100 mM), and dilutions were prepared from this stock solution with DMSO. Alternatively, the reactions were performed using another activity buffer (141 μL, 100 mM Tris-acetate, […], 1 mM DTT, pH 7.3), pre-incubating with hPOP (10 nM) and the corresponding new compound solution (3 μl) (Conditions B).
After preincubation, Z-G-P-AMC (10 μl, 3 mM in 40% 1,4-dioxane) was added (3 μl, 1.5 mM in 40% of 1,4-dioxane, in Conditions B), and the reaction was incubated for 1 hour at 37° C. The reaction was stopped by adding sodium acetate (150 μl, 1 M, pH 4) and the formation of AMC was measured fluorimetrically. The excitation and emission wavelengths were 360/40 and 485/20 nm, respectively.
Several concentration points (ranging from 25 μM to 400 μM) were measured for each compound. The inhibitory activity on prolyl oligopeptidase was calculated according to eq 1. For each new compound, the fluorescence in the presence (a) and in the absence of hPOP (b) was measured. […]

[2] = Parallel artificial membrane permeability assay (PAMPA); format: in vitro ADME; settings: 200 μM initial concentration, pH 7.4, 4 hours, room temperature; for Papp at 4 h, 200 μM: PAMPA, read-out: Effective permeability Pe
Experimental: Parallel artificial membrane permeability assay (PAMPA) described in Kansy M et al., J. Med. Chem. 1998; 41(7):1007-10 was used to determine the capacity of compounds to cross the Blood-Brain Barrier (BBB) by passive diffusion (Di L et al., Eur. J. Med. Chem. 2003; 38(3):223-32). The effective permeability (Pe) of the compounds was measured at an initial concentration of 200 μM. The buffer solution was prepared from a commercial concentrated one following the manufacturer's instructions. pH was adjusted to 7.4 using a 0.5 M NaOH solution. A stock solution of new compound was prepared in DMSO and diluted with buffer solution to a final 200 μM concentration (0.5% DMSO content). The PAMPA sandwich was separated and each donor well was filled with 200 μL of the compound solution. The acceptor plate was placed into the donor plate, ensuring that the underside of the membrane was in contact with buffer. 4 μL of the mixture of phospholipids (20 mg/mL) in dodecane was added to the filter of each well, and 200 μL of buffer solution was added to the each acceptor well. The plate was covered and incubated at room temperature in a saturated humidity atmosphere for 4 hours under orbital agitation at 100 rpm. After 4 hours, the contents of the acceptor and donor compartments were analyzed by HPLC: 150 μL of each well from the donor plate and 150 μL of each well from the acceptor plate were transferred to HPLC vials, injecting each sample into a reverse-phase C18 column (150 mm×4.6 mm×5 μm, 100 Å) (100 μL/injection from the acceptor wells, 10 μL/injection from the donor wells and for t0 references). Transport was also confirmed by MALDI-TOF spectrometry.
The phospholipid mixture used was a porcine polar brain lipid extract, provided by Avanti polar lipids, with the following composition: 12.6% phosphatidylcholine (PC), 33.1% phosphatidylethanolamine (PE), 18.5% phosphatidylserine (PS), 4.1% phosphatidylinositol (PI), 0.8% phosphatidic acid and 30.9% of other compounds.
The effective permeability (Pe) after 4 hours was calculated using equation 2 and the percentage of transport was calculated using equation 3:
[formula] wherein: t is time (h) CA(t) is the compound concentration in the acceptor well at time t and CD(to) is the compound concentration in the donor well at to.

[3] = 100 mM Na/K phosphate buffer, pH 8.0, hPOP 20 to 60 nM, Z-G-P-AMC, 1 hour at 37° C., read-out: IC50, inhibition of human prolyl oligopeptidase
[4] = Conditions B: 100 mM Tris-acetate, 10 mM BSA, 1 mM DTT, pH 7.3, hPOP 10 nM, read-out: IC50, inhibition of human prolyl oligopeptidase, measured in conditions B

Sequence of human prolyl oligopeptidase (P48147 whole entry): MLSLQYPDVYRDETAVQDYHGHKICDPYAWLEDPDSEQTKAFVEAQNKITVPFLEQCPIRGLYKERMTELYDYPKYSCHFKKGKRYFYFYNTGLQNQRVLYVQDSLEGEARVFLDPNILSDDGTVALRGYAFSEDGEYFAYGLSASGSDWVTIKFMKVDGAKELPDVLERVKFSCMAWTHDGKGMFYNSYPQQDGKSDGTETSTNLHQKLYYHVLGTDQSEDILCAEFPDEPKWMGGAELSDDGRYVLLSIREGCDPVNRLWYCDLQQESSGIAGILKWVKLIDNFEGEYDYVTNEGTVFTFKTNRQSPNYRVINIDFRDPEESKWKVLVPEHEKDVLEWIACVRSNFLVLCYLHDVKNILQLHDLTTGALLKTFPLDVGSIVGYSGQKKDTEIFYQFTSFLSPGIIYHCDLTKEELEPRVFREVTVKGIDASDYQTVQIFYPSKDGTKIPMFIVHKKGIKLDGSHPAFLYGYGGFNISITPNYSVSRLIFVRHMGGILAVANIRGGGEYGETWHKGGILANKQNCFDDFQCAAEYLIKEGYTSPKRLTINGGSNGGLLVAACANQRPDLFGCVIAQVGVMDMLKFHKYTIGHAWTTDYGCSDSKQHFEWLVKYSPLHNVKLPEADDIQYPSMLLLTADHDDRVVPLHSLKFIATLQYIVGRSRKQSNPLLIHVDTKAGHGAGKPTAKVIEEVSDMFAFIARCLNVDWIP

| SMILES | IC50 [1, 3] | IC50 [1, 4] | % T (percentage of transport) [2] | Papp at 4 h, 200 μM [2] |
| --- | --- | --- | --- | --- |
| COc1cc(C(=O)N2CC(F)(F)C[C@H]2C(=O)N2CCC[C@H]2C#N)cc(OC)c1OC(C)=O [Example 11, (S)-1-((2S)-1-(4-acetoxy-3,5-dimethoxybenzoyl)-4,4-difluoropyrrolidine-2-carbonyl)pyrrolidine-2-carbonitrile] | 352 nM | – | – | – |
| COc1cc(C(=O)N2C[C@H](OC)C[C@H]2C(=O)N2CCC[C@H]2C#N)cc(OC)c1OCc1ccccc1 [Example 1, (S)-1-((2S,4R)-1-(4-(benzyloxy)-3,5-dimethoxybenzoyl)-4-methoxypyrrolidine-2-carbonyl)pyrrolidine-2-carbonitrile] | 63.8 nM | – | 4.3% | 1 ×10⁻⁶ cm/s |
| COc1cc(C(=O)N2C[C@H](F)C[C@H]2C(=O)N2CCC[C@H]2C#N)cc(OC)c1OCc1ccccc1 [Example 2, (S)-1-((2S,4R)-1-(4-(benzyloxy)-3,5-dimethoxybenzoyl)-4-fluoropyrrolidine-2-carbonyl)pyrrolidine-2-carbonitrile] | 60.4 nM | – | 13.03% | 7.28 ×10⁻⁶ cm/s |
| COc1cc(C(=O)N2C[C@H](OC(C)(C)C)C[C@H]2C(=O)N2CCC[C@H]2C#N)cc(OC)c1OCc1ccccc1 [Example 9, (S)-1-((2S,4R)-1-(4-(benzyloxy)-3,5-dimethoxybenzoyl)-4-(tert-butoxy)pyrrolidine-2-carbonyl)pyrrolidine-2-carbonitrile] | 668 nM | – | – | – |
| COc1cc(C(=O)N2CC(F)(F)C[C@H]2C(=O)N2CCC[C@H]2C#N)cc(OC(C)=O)c1OC [Example 15, (S)-1-((2S)-1-(3-acetoxy-4,5-dimethoxybenzoyl)-4,4-difluoropyrrolidine-2-carbonyl)pyrrolidine-2-carbonitrile] | 5600 nM | – | – | – |
| COc1cc(C(=O)N2C[C@H](c3ccccc3)C[C@H]2C(=O)N2CCC[C@H]2C#N)cc(OC)c1OCc1ccccc1 [Example 3, (S)-1-((2S,4S)-1-(4-(benzyloxy)-3,5-dimethoxybenzoyl)-4-phenylpyrrolidine-2-carbonyl)pyrrolidine-2-carbonitrile] | 339 nM | – | 5.72% | 2.89 ×10⁻⁶ cm/s |

Next, values leading:

| IC50 [1, 3] | IC50 [1, 4] | % T (percentage of transport) [2] | Papp at 4 h, 200 μM [2] | SMILES |
| --- | --- | --- | --- | --- |
| – | 487 nM | 11.91% | 6.51 ×10⁻⁶ cm/s | N#C[C@@H]1CCCN1C(=O)[C@@H]1CC(F)(F)CN1C(=O)c1cccc(OCc2ccccc2)c1 [Example 18, (S)-1-((S)-1-(3-(benzyloxy)benzoyl)-4,4-difluoropyrrolidine-2-carbonyl)pyrrolidine-2-carbonitrile] |
| 336 nM | – | – | – | COc1cc(C(=O)N2CC(F)(F)C[C@H]2C(=O)N2CCC[C@H]2C#N)cc(OCc2ccccc2)c1OCc1ccccc1 [Example 13, (S)-1-((2S)-1-(3,4-dibenzyloxy-5-methoxybenzoyl)-4,4-difluoropyrrolidine-2-carbonyl)pyrrolidine-2-carbonitrile] |
| 176 nM | – | 17.03% | 9.98 ×10⁻⁶ cm/s | COc1cc(C(=O)N2C[C@@H](SC)C[C@H]2C(=O)N2CCC[C@H]2C#N)cc(OC)c1OCc1ccccc1 [Example 5, (S)-1-((2S,4S)-1-(4-(benzyloxy)-3,5-dimethoxybenzoyl)-4-(methythio)pyrrolidine-2-carbonyl)pyrrolidine-2-carbonitrile] |
| 176 nM | – | 19.27% | 5.07 ×10⁻⁶ cm/s | COc1cc(C(=O)N2C[C@@H](C(F)(F)F)C[C@H]2C(=O)N2CCC[C@H]2C#N)cc(OC)c1OCc1ccccc1 [Example 8, (S)-1-((2S,4S)-1-(4-(benzyloxy)-3,5-dimethoxybenzoyl)-4-(trifluoromethyl)-pyrrolidine-2-carbonyl)pyrrolidine-2-carbonitrile] |
| – | 13.1 nM | 14.76% | 3.79 ×10⁻⁶ cm/s | COc1cc(C(=O)N2C[C@@H](C)C[C@H]2C(=O)N2CCC[C@H]2C#N)cc(OC)c1OCc1ccccc1 [Example 6, (S)-1-((2S,4S)-1-(4-(benzyloxy)-3,5-dimethoxybenzoyl)-4-methylpyrrolidine-2-carbonyl)pyrrolidine-2-carbonitrile] |
| – | 255 nM | 17.55% | 10.3 ×10⁻⁶ cm/s | N#C[C@@H]1CCCN1C(=O)[C@@H]1CC(F)(F)CN1C(=O)c1ccccc1OCc1ccccc1 [Example 19, (S)-1-((S)-1-(2-(benzyloxy)benzoyl)-4,4-difluoropyrrolidine-2-carbonyl)pyrrolidine-2-carbonitrile] |
| – | 287 nM | 14.12% | 8.04 ×10⁻⁶ cm/s | N#C[C@@H]1CCCN1C(=O)[C@@H]1CC(F)(F)CN1C(=O)c1ccc(OCc2ccccc2)cc1 [Example 17, (S)-1-((S)-1-(4-(benzyloxy)benzoyl)-4,4-difluoropyrrolidine-2-carbonyl)pyrrolidine-2-carbonitrile] |
| 111 nM | – | 8.47% | 2.1 ×10⁻⁶ cm/s | COc1cc(C(=O)N2CC(F)(F)C[C@H]2C(=O)N2CCC[C@H]2C#N)cc(OC)c1OC(=O)c1ccccc1 [Example 12, (S)-1-((2S)-1-(4-benzoyloxy-3,5-dimethoxybenzoyl)-4,4-difluoropyrrolidine-2-carbonyl)pyrrolidine-2-carbonitrile] |
| – | 4.5 nM | 2.64% | 1.29 ×10⁻⁶ cm/s | N#C[C@@H]1CCCN1C(=O)[C@@H]1CC(F)(F)CN1C(=O)c1ccc(OCc2ccccc2)c(C(F)(F)F)c1 [Example 20, (S)-1-((S)-1-(4-(benzyloxy)-3-(trifluoromethyl)benzoyl)-4,4-difluoropyrrolidine-2-carbonyl)pyrrolidine-2-carbonitrile] |
